Holding throughout (format): in vivo
For data set [1], the system named is Brassica campestris L. Put plainly: Test Example 4: effect on crop by application to foliage (diluvial soil, plastic box). The conditions noted are these: foliage application, 320 g/ha. In outline: (§1)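 Emulsion-formulated compound, diluted to a predetermined g/ha dose, applied by small sprayer to leaves and stems of 14-day-old seedlings grown in sterilized diluvial soil. Effect rated on 0–5 herbicidal-ratio scale three weeks on.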

The test system of data set [2] is Glycine max. Described as above. The following applies: foliage application, 320 g/ha. In outline: as §1
Data set [3] has as its system directly sowed Oryza sativa. The data set is described as above. The following applies: foliage application, 320 g/ha. In outline: as §1
The test system of data set [4] is Zea mays. Described as above. The conditions noted are these: foliage application, 320 g/ha. In outline:
as §1

For data set [5], the system named is Triticum aestivum. The data set is described as above. The following applies: foliage application, 320 g/ha. The method in brief:
as §1

Data set [6] deals with Beta vulgaris ssp. vulgaris. Described as above. The following applies: foliage application, 320 g/ha. In outline:
as §1

For data set [7], the system named is Galium spurium. Put plainly: Test Example 4: herbicidal effect by application to foliage (diluvial soil, plastic box). The following applies: foliage application, 320 g/ha. In outline: as §1
Data set [8] deals with directly sowed Oryza sativa. As to the kind of experiment: Test Example 3: effect on crop by application to foliage (Wagner pot, water depth 0.1-0.5 cm). The following applies: Nineteenth Table; application to foliage; application herbicide amount 320 g/ha. In outline: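 Rice-field weeds and directly sown rice were grown 14 days in flooded alluvial soil (water depth 0.1–0.5 cm) at 25–30 °C in a greenhouse. An emulsion formulation diluted to the stated g/ha rate was sprayed onto stems and leaves. Effects were scored on a 0–5 scale (herbicidal ratio bands) three weeks after treatment.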

Data set [9] concerns transplanted Oryza sativa. Put plainly: Test Example 1: effect on crop, application before weed generation in submerged conditions. The conditions noted are these: Application herbicide amount 320 g/ha; Seventeenth Table. The method in brief:
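Rating, on a six-step scale from almost no effect (0) to almost completely withered (5), was made three weeks after pre-emergence treatment. Treatment was surface application to flooded pots at g/ha rates, with plants kept at 25° C. to 30° C.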

SMILES strings stand for the structures.

`CC(C)c1nnc2c(C(=O)Nc3nnnn3-c3ccccc3)ccc(C(F)(F)F)n12` [2-073]: the “g (Brassica campestris L.) effect on crop grade” value in data set [1] was 0 (Herbicidal ratio of 5% or less (almost no effect)). In addition, the “c (Glycine max) effect on crop grade” value in data set [2] is 0 (Herbicidal ratio of 5% or less (almost no effect)). For the same molecule, the “d (directly sowed Oryza sativa) effect on crop grade” value in [3] was 2 (Herbicidal ratio of 20% or more and less than 40%). Moreover, the “b (Zea mays) effect on crop grade” value in [4] is on record as 0 (Herbicidal ratio of 5% or less (almost no effect)). Moreover, the “e (Triticum aestivum) effect on crop grade” value (shortened to “e (Triticum aestivum) effect”) in data set [5] is listed as 0 (Herbicidal ratio of 5% or less (almost no effect)). Moreover, the “f (Beta vulgaris ssp. vulgaris) effect on crop grade” value in [6] was 3 (Herbicidal ratio of 40% or more and less than 70%). In data set [7], the “Q (Galium spurium) herbicidal effect grade” value is on record as 0 (Herbicidal ratio of 5% or less (almost no effect)). In addition, in data set [8], the “b (effect on crop grade)” value is 2 (Herbicidal ratio of 20% or more and less than 40%). Further, the “a: transplanted Oryza sativa (effect on crop grade)” value (shortened to “a: transplanted Oryza sativa”) in data set [9] was 2 (Herbicidal ratio of 20% or more and less than 40%).

Take `Cc1cc(-c2nnc3c(C(=O)Nc4nnnn4C)ccc(C(F)(F)F)n23)n(C)n1` [2-062]: the “g (Brassica campestris L.) effect on crop grade” value in [1] was 5 (Herbicidal ratio of 90% or more (almost completely withered)). For the same molecule, the “c (Glycine max) effect on crop grade” value in [2] is given as 5 (Herbicidal ratio of 90% or more (almost completely withered)). The “d (directly sowed Oryza sativa) effect on crop grade” value in [3] is 5 (Herbicidal ratio of 90% or more (almost completely withered)). Also, the “b (Zea mays) effect on crop grade” value in [4] is on record as 5 (Herbicidal ratio of 90% or more (almost completely withered)). Besides, the “e (Triticum aestivum) effect” value in data set [5] is 4 (Herbicidal ratio of 70% or more and less than 90%). Also, the “f (Beta vulgaris ssp. vulgaris) effect on crop grade” value in data set [6] is given as 5 (Herbicidal ratio of 90% or more (almost completely withered)). Besides, the “Q (Galium spurium) herbicidal effect grade” value in data set [7] is reported as 5 (Herbicidal ratio of 90% or more (almost completely withered)). Also, in [8], the “b (effect on crop grade)” value is 5 (Herbicidal ratio of 90% or more (almost completely withered)). For the same molecule, in data set [9], the “a: transplanted Oryza sativa” value was 5 (Herbicidal ratio of 90% or more (almost completely withered)).

On to `Cn1nnnc1NC(=O)c1ccc(C(F)(F)F)n2c(CCS(C)(=O)=O)nnc12` [2-059], for which the “g (Brassica campestris L.) effect on crop grade” value in [1] was 5 (Herbicidal ratio of 90% or more (almost completely withered)). Also, the “c (Glycine max) effect on crop grade” value in [2] was 3 (Herbicidal ratio of 40% or more and less than 70%). Besides, the “d (directly sowed Oryza sativa) effect on crop grade” value in data set [3] is recorded as 5 (Herbicidal ratio of 90% or more (almost completely withered)). Also, the “b (Zea mays) effect on crop grade” value in data set [4] was 5 (Herbicidal ratio of 90% or more (almost completely withered)). In [5], the “e (Triticum aestivum) effect” value is 4 (Herbicidal ratio of 70% or more and less than 90%). The “f (Beta vulgaris ssp. vulgaris) effect on crop grade” value in [6] is listed as 5 (Herbicidal ratio of 90% or more (almost completely withered)). Further, the “Q (Galium spurium) herbicidal effect grade” value in data set [7] is given as 5 (Herbicidal ratio of 90% or more (almost completely withered)). Also, the “b (effect on crop grade)” value in [8] is on record as 5 (Herbicidal ratio of 90% or more (almost completely withered)). In addition, the “a: transplanted Oryza sativa” value in [9] was 5 (Herbicidal ratio of 90% or more (almost completely withered)).

`Cn1nnnc1NC(=O)c1ccc(C(F)(F)F)n2c(-c3cccs3)nnc12` [2-061]: in [1], the “g (Brassica campestris L.) effect on crop grade” value was 4 (Herbicidal ratio of 70% or more and less than 90%). Besides, the “c (Glycine max) effect on crop grade” value in data set [2] is 3 (Herbicidal ratio of 40% or more and less than 70%). The “d (directly sowed Oryza sativa) effect on crop grade” value in data set [3] is 4 (Herbicidal ratio of 70% or more and less than 90%). Besides, in [4], the “b (Zea mays) effect on crop grade” value is listed as 5 (Herbicidal ratio of 90% or more (almost completely withered)). The “e (Triticum aestivum) effect” value in [5] was 3 (Herbicidal ratio of 40% or more and less than 70%). In addition, the “f (Beta vulgaris ssp. vulgaris) effect on crop grade” value in data set [6] is 5 (Herbicidal ratio of 90% or more (almost completely withered)). In addition, the “Q (Galium spurium) herbicidal effect grade” value in [7] is 3 (Herbicidal ratio of 40% or more and less than 70%). Besides, in [8], the “b (effect on crop grade)” value was 5 (Herbicidal ratio of 90% or more (almost completely withered)). Besides, the “a: transplanted Oryza sativa” value in data set [9] was 4 (Herbicidal ratio of 70% or more and less than 90%).

Regarding `Cn1nnnc1NC(=O)c1ccc(C(F)(F)F)n2c(Nc3ccccc3)nnc12` [2-056], in [1], the “g (Brassica campestris L.) effect on crop grade” value was 3 (Herbicidal ratio of 40% or more and less than 70%). For the same molecule, the “c (Glycine max) effect on crop grade” value in data set [2] was 1 (Herbicidal ratio of 5% or more and less than 20%). Besides, the “d (directly sowed Oryza sativa) effect on crop grade” value in data set [3] is 3 (Herbicidal ratio of 40% or more and less than 70%). For the same molecule, the “b (Zea mays) effect on crop grade” value in data set [4] is reported as 0 (Herbicidal ratio of 5% or less (almost no effect)). Further, the “e (Triticum aestivum) effect” value in [5] was 1 (Herbicidal ratio of 5% or more and less than 20%). Also, the “f (Beta vulgaris ssp. vulgaris) effect on crop grade” value in data set [6] is on record as 5 (Herbicidal ratio of 90% or more (almost completely withered)). For the same molecule, the “Q (Galium spurium) herbicidal effect grade” value in data set [7] was 4 (Herbicidal ratio of 70% or more and less than 90%). Besides, in data set [8], the “b (effect on crop grade)” value is 4 (Herbicidal ratio of 70% or more and less than 90%). Further, in [9], the “a: transplanted Oryza sativa” value was 1 (Herbicidal ratio of 5% or more and less than 20%).

`Cc1ccc(-c2nnc3c(C(=O)Nc4nnnn4C)ccc(C(F)(F)F)n23)cc1` [2-042]: the “g (Brassica campestris L.) effect on crop grade” value in data set [1] was 2 (Herbicidal ratio of 20% or more and less than 40%). For the same molecule, in data set [2], the “c (Glycine max) effect on crop grade” value was 0 (Herbicidal ratio of 5% or less (almost no effect)). Besides, the “d (directly sowed Oryza sativa) effect on crop grade” value in data set [3] is 3 (Herbicidal ratio of 40% or more and less than 70%). Besides, the “b (Zea mays) effect on crop grade” value in [4] is 4 (Herbicidal ratio of 70% or more and less than 90%). Moreover, in data set [5], the “e (Triticum aestivum) effect” value is listed as 0 (Herbicidal ratio of 5% or less (almost no effect)). In data set [6], the “f (Beta vulgaris ssp. vulgaris) effect on crop grade” value was 4 (Herbicidal ratio of 70% or more and less than 90%). Further, in data set [7], the “Q (Galium spurium) herbicidal effect grade” value is 1 (Herbicidal ratio of 5% or more and less than 20%). The “b (effect on crop grade)” value in [8] is reported as 5 (Herbicidal ratio of 90% or more (almost completely withered)). Besides, the “a: transplanted Oryza sativa” value in data set [9] is listed as 5 (Herbicidal ratio of 90% or more (almost completely withered)).

As for `Cn1nnnc1NC(=O)c1ccc(C(F)(F)F)n2c([S+](C)[O-])nnc12` (stereo not drawn) [2-067], in [1], the “g (Brassica campestris L.) effect on crop grade” value is on record as 5 (Herbicidal ratio of 90% or more (almost completely withered)). Besides, the “c (Glycine max) effect on crop grade” value in data set [2] is 4 (Herbicidal ratio of 70% or more and less than 90%). For the same molecule, the “d (directly sowed Oryza sativa) effect on crop grade” value in data set [3] is on record as 5 (Herbicidal ratio of 90% or more (almost completely withered)). The “b (Zea mays) effect on crop grade” value in data set [4] is recorded as 5 (Herbicidal ratio of 90% or more (almost completely withered)). Moreover, the “e (Triticum aestivum) effect” value in data set [5] is 4 (Herbicidal ratio of 70% or more and less than 90%). The “f (Beta vulgaris ssp. vulgaris) effect on crop grade” value in data set [6] is 5 (Herbicidal ratio of 90% or more (almost completely withered)). For the same molecule, the “Q (Galium spurium) herbicidal effect grade” value in data set [7] was 4 (Herbicidal ratio of 70% or more and less than 90%). Further, in data set [8], the “b (effect on crop grade)” value is recorded as 5 (Herbicidal ratio of 90% or more (almost completely withered)). Also, the “a: transplanted Oryza sativa” value in [9] is on record as 5 (Herbicidal ratio of 90% or more (almost completely withered)).

Turning to `CCOC(=O)Cc1nnc2c(C(=O)Nc3nnnn3C)ccc(C(F)(F)F)n12` [2-040], the “g (Brassica campestris L.) effect on crop grade” value in data set [1] was 3 (Herbicidal ratio of 40% or more and less than 70%). The “c (Glycine max) effect on crop grade” value in data set [2] was 1 (Herbicidal ratio of 5% or more and less than 20%). The “d (directly sowed Oryza sativa) effect on crop grade” value in [3] was 4 (Herbicidal ratio of 70% or more and less than 90%). The “b (Zea mays) effect on crop grade” value in data set [4] is 4 (Herbicidal ratio of 70% or more and less than 90%). The “e (Triticum aestivum) effect” value in data set [5] was 2 (Herbicidal ratio of 20% or more and less than 40%). The “f (Beta vulgaris ssp. vulgaris) effect on crop grade” value in [6] is listed as 5 (Herbicidal ratio of 90% or more (almost completely withered)). Further, the “Q (Galium spurium) herbicidal effect grade” value in [7] was 4 (Herbicidal ratio of 70% or more and less than 90%). The “b (effect on crop grade)” value in data set [8] was 4 (Herbicidal ratio of 70% or more and less than 90%). Besides, in [9], the “a: transplanted Oryza sativa” value was 4 (Herbicidal ratio of 70% or more and less than 90%).

The record behind these values is patent publication US9708314B2, “Heterocyclic amide compound” (NISSAN CHEMICAL INDUSTRIES, LTD., priority 2013, dated 2017).
